# Experimental data: patent US12370143B2, “Compound or salt thereof and lipid particles” (FUJIFILM Corporation, priority 2018, dated 2025)
# Assays:
# [1] = Encapsulation rate of siRNA in nucleic acid lipid particles (Luc2-siRNA); assay type: physicochemical; details: compound/DSPC/cholesterol/DMG-PEG2000 50/10/38.5/1.5
# Procedure: (§1) The compounds described in Table 2, L-α-distearoylphosphatidylcholine (trade name: COATSOME® MC-8080; NOF corporation), cholesterol (trade name: Choesterol HP; NIPPON FINE CHEMICAL CO., LTD.), and 1,2-dimyristoyl-rac-glycero-3-(methylpolyoxyethylene 2000) (hereinafter, called DMG-PEG2000) (trade name: SUNBRIGHT® GM-020; NOF corporation) were dissolved in ethanol at a molar ratio of 50/10/38.5/1.5 such that the total lipid concentration became 20 mmol/L, thereby obtaining an oil phase.
# (§2) An aqueous nucleic acid solution obtained by dissolving 5 mg of Luc2-siRNA having the sequence described in Biomacromolecules (2013) 14, p. 3905 in 1 mL of sterile water was diluted with 10 mmol/L acetate buffer having a pH 4 such that the nucleic acid concentration became 19.7 μmol/L, thereby obtaining a water phase. Then, the water phase and the oil phase were mixed together by a micromixer (see JP5288254B) using a syringe pump such that the volume ratio of water phase:oil phase became 3:1 (final ratio of siRNA/lipid=339 (mol/mol)), and the mixed solution was diluted 2× with PBS, thereby obtaining a dispersion liquid of nucleic acid lipid particles. The dispersion liquid was dialyzed (Slide-A-Lyzer G2, MWCO: 10 kD, Thermo Fisher Scientific) using a phosphate buffered saline such that ethanol was removed, thereby obtaining nucleic acid lipid particles.
# A 3 mol/L aqueous sodium acetate solution (30 μL) and 9 μL of glycogen were added to 60 μL of the lipid particles retaining nucleic acids, and then 1.5 mL of ethanol was added thereto such that only the nucleic acids were precipitated while the lipid was dissolved. Then, the supernatant was removed by centrifugation. After the precipitates were air-dried for 15 minutes or longer, water was added thereto such that the precipitates were redissolved, and the concentration thereof was measured using Nanodrop NF1000 (Thermo Fisher Scientific), thereby quantifying the total nucleic acid concentration.
# The nucleic acid concentration was quantified using a Quant-iT RiboGreen RNA Assay Kit (Thermo Fisher Scientific) according to the protocol. First, a 20×TE buffer included in the above kit was diluted with water, thereby obtaining a 1×TE buffer. TE represents Tris/EDTA (ethylenediaminetetraacetic acid). In order to quantify only the nucleic acid in the outer water phase, the dispersion liquid of lipid particles retaining nucleic acids was diluted 10,000× with the 1×TE buffer.
# The 10,000× diluted dispersion liquid of lipid particles (100 μL) was put in a 96-well plate, then 100 μL of a RiboGreen reagent (reagent included in the Quanti-iT Ribogreen RNA Assay Kit described above) diluted 2000× with the 1×TE buffer was added to a sample, and fluorescence (excitation wavelength: 485 nm, fluorescence wavelength: 535 nm) was measured using a plate reader Infinit EF200 (TECAN), thereby quantifying the nucleic acid concentration in the outer water phase.
# By using the total nucleic acid concentration obtained through the above steps and the quantified nucleic acid concentration in the outer water phase, the nucleic acid encapsulation rate of the nucleic acid lipid particles was calculated according to the following Equation. Nucleic acid encapsulation rate (%)=(total nucleic acid concentration−nucleic acid concentration in outer water phase)/total nucleic acid concentration×100 The results are shown in Table 2.
# [2] = Particle size of nucleic acid lipid particles (Luc2-siRNA); assay type: physicochemical; details: compound/DSPC/cholesterol/DMG-PEG2000 50/10/38.5/1.5
# Procedure: By using the dispersion liquid of lipid particles as it was, the particle size of the lipid particles was measured using a zeta potential/particle size measurement system ELS-Z2 (Otsuka Electronics Co., Ltd.).
# as §1, §2
# The particle size of the nucleic acid lipid particles was measured by the same method as that in <Preparation of lipid particles>.
# [3] = test system: DMS273 cells constantly expressing Luc; experiment: Target reporter protein (Luc) knockdown in cell, reporter protein assay; assay type: cell-based; details: Homo sapiens, DMS-273; Luc2-siRNA lipid particles using the compound; siRNA 0.1 to 100 nmol/L; concentration at which Luc expression is knocked down to 50%; read-out: IC50
# Procedure: The nucleic acid lipid particles prepared by the same method as that in <Preparation of nucleic acid lipid particles> by using the compounds described in Table 3 were evaluated by reporter assay by the following method.
# By using pGL4.50 Luc2 (E1310 Promega), DMS273 cells (human small cell lung cancer) (European Collection of Authenticated Cell Cultures) constantly expressing Luc were prepared. RPMI (Gibco) (10% FBS (Gibco), 1% Penicillin-Streptomycin (Gibco), and 200 μg/mL Hygromycin (Wako)) was used as a culture medium. DMS273 cells (2.0×10^3) constantly expressing luciferase (Luc) were seeded in a 96-well plate and cultured in a 5% CO2 incubator for 24 hours, and then the medium was replaced. Then, 10 μL of each of the dispersion liquids of lipid particles diluted with PBS (Gibco) to yield a concentration of 1 to 1,000 nmol/L was added to the 96-well plate, and the final concentration was adjusted to 0.1 to 100 nmol/L (total amount of liquid: 110 μl). Thereafter, the cells were cultured in a 5% CO2 incubator for 24 hours, the medium was then replaced, and the cells were further cultured for 24 hours.
# After the viable cell count was determined, the expression amount of Luc was quantified using a Steady Glo assay kit (Promega), and the knockdown efficiency was calculated according to the following equation. Then, the IC50 concentration at which the expression amount of Luc was knocked down to 50% was calculated.
SMILES,Nucleic acid encapsulation rate [1] [%],Particle size (nm) [2] [nm],IC50 [3] [nM]
"CCCCC/C=C\C/C=C\CCCCCCCCN(CCCCCCCC/C=C\C/C=C\CCCCC)C(=O)CCN(C)CCN(C)C [Comparative Example 7, 3-((2-(dimethylamino)ethyl)(methyl)amino)-N,N-di((9Z,12Z)-octadeca-9,12-dien-1-yl)propanamide, reference compound]",87,71.9,> 100
"CCCCC/C=C\C/C=C\CCCCCCCCN(CCCCCCCC/C=C\C/C=C\CCCCC)C(=O)OC1CCN(CCN(C)C)CC1 [Example 3, 1-(2-(Dimethylamino)ethyl)piperidin-4-yl di((9Z,12Z)-octadeca-9,12-dien-1-yl)carbamate]",100,83.6,43
"CCCCC/C=C\C/C=C\CCCCCCCCN(CCCCCCCC/C=C\C/C=C\CCCCC)C(=O)OC1CCCN(CCN(C)C)C1 (stereo not drawn) [Example 4, 1-(2-(Dimethylamino)ethyl)piperidin-3-yl di((9Z,12Z)-octadeca-9,12-dien-1-yl)carbamate]",81,66.1,10
"CCCCC/C=C\C/C=C\CCCCCCCCN(CCCCCCCC/C=C\C/C=C\CCCCC)C(=O)OCCN(C)CCN(CC)CC [Example 7, 2-((2-(Diethylamino)ethyl)(methyl)amino)ethyl di((9Z,12Z)-octadeca-9,12-dien-1-yl)carbamate]",84,98.6,14
"CCCCC/C=C\C/C=C\CCCCCCCCC(CCCCCCCC/C=C\C/C=C\CCCCC)OC(=O)OCCN(C)CCN(C)C [Example 20, 2-((2-(dimethylamino)ethyl)(methyl)amino)ethyl((6Z,9Z,28Z,31Z)-heptatriaconta-6,9,28,31-tetraen-19-yl)carbonate]",84,101.6,15
"CCCCC/C=C\C/C=C\CCCCCCCCC(CCCCCCCC/C=C\C/C=C\CCCCC)OC(=O)OCCN(CCN(C)C)C(C)C [Example 25, 2-((2-(Dimethylamino)ethyl)(isopropyl)amino)ethyl((6Z,9Z,28Z,31Z)-heptatriaconta-6,9,28,31-tetraen-19-yl)carbonate]",76,68.5,16
CCCCC/C=C\C/C=C\CCCCCCCCC(CCCCCCCC/C=C\C/C=C\CCCCC)OC(=O)OCCN(C)CCN [Example 26],97,209.8,30
"CCCCC/C=C\C/C=C\CCCCCCCCC(CCCCCCCC/C=C\C/C=C\CCCCC)OC(=O)OCCN(C)CCN(C)CCO [Example 27, (6Z,9Z,28Z,31Z)-heptatriaconta-6,9,28,31-tetraen-19-yl(2-((2-((2-hydroxyethyl)(methyl)amino)ethyl)(methyl)amino)ethyl)carbonate]",75,75.2,31
"CCCCC/C=C\C/C=C\CCCCCCCC(CCCCCCCCCC)OC(=O)OCCN(C)CCN(C)C (stereo not drawn) [Example 29, 2-((2-(Dimethylamino)ethyl)(methyl)amino)ethyl((19Z,22Z)-octacosa-19,22-dien-11-yl)carbonate]",77,70.1,19
"CCCCC/C=C\C/C=C\CCCCCCCC(CCCCCCCCCC)OC(=O)OCCN(CC)CCN(C)C (stereo not drawn) [Example 33, 2-((2-(Dimethylamino)ethyl)(ethyl)amino)ethyl((19Z,22Z)-octacosa-19,22-dien-11-yl)carbonate]",87,67.9,12
CCCCC/C=C\C/C=C\CCCCCCCCC(CCCCCCCC/C=C\C/C=C\CCCCC)OC(=O)OCCN(CCCCCCCCCCCC)CCN(C)C [Example 53],78,81,9
"CCCCCCC(CCCC)COC(=O)CCCCCCCCC(CCCCCC)OC(=O)OCCN(CCN(CC)CC)C(C)C (stereo not drawn) [Example 84, 2-butyloctyl 3-ethyl-12-hexyl-6-isopropyl-10-oxo-9,11-dioxa-3,6-diazahenicosan-21-oate]",79,81,30
"CCCCCCC(CCCC)COC(=O)CCCC(CCCCCC)OC(=O)OCCN(CCO)CCN(CC)CC (stereo not drawn) [Example 101, 2-Butyloctyl 3-ethyl-12-hexyl-6-(2-hydroxyethyl)-10-oxo-9,11-dioxa-3,6-diazahexadecan-16-oate]",68,177.3,39
"CCCCCCCCC(CCCCCC)COC(=O)CCCC(CCCCCC)OC(=O)OCCN(CCO)CCN(CC)CC (stereo not drawn) [Example 102, 2-Hexyldecyl 3-ethyl-12-hexyl-6-(2-hydroxyethyl)-10-oxo-9,11-dioxa-3,6-diazahexadecan-16-oate]",70,147.2,27
"CCCCCCCCC(CCCCCC)COC(=O)CCCCCC(CCCCCC)OC(=O)OCCN(CCN(CC)CC)C(C)C (stereo not drawn) [Example 116, 2-Hexyldecyl 3-ethyl-12-hexyl-6-isopropyl-10-oxo-9,11-dioxa-3,6-diazaoctadecan-18-oate]",73,76.3,25
"CCCCC/C=C\C/C=C\CCCCCCCCC(CCCCCCCC/C=C\C/C=C\CCCCC)OC(=O)CCCN(C)C [Reference Example 1, (6Z,9Z,28Z,31Z)-heptatriaconta-6,9,28,31-tetraen-19-yl-4-(dimethylamino)butanoate, reference compound]",81,69.6,47
"CCCCC/C=C\C/C=C\CCCCCCCCN(CCCCCCCC/C=C\C/C=C\CCCCC)C(=O)OCC1CCCN(C)C1 (stereo not drawn) [Reference Example 2, (1-Methylpiperidin-3-yl)methyl di((9Z,12Z)-octadeca-9,12-dien-1-yl)carbamate, reference compound]",85,118.4,59
